Like-named read-outs stand apart in the source and are kept apart here.
Experiments:
[1] = molecular target: Rabbit Reticulocyte Lysate (eukaryotic protein synthesis); experiment: Rabbit reticulocyte lysate luciferase assay (inhibition of eukaryotic protein synthesis); format: biochemical; conditions: read-out: Rabbit reticulocyte IC50 (μM/% inhib.)
Outline: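 In vitro translation of luciferase control RNA in nuclease-treated rabbit reticulocyte lysate with amino acid mixture, compounds in 2-fold serial dilution, 90 minutes at 30° C. Luminescence read after luciferase reagent; % inhibition relative to water no-inhibitor controls, with no-RNA background wells.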

[2] = test system: E. coli S30 extract (bacterial protein synthesis); experiment: E. coli S30 extract coupled transcription-translation luciferase assay (inhibition of bacterial protein synthesis); format: biochemical; conditions: read-out: S30 IC50 (μM/% inhib.)
Outline: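 Coupled transcription-translation in E. coli S30 circular-DNA extract expressing luciferase from pBESTluc, with 8-point 2-fold compound dilutions; 1 hour at 37 °C, stopped at 4 °C. Luminescence read; % inhibition versus no-inhibitor wells, no-DNA wells as background.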

S. aureus (Sa) = experiment: Broth microdilution minimum inhibitory concentration (MIC), CLSI; format: cell-based; conditions: Staphylococcus aureus, read-out: Sa + bicarb MIC
Outline: (§1)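 CLSI M07-A9 broth microdilution, slightly modified: 8 two-fold compound dilutions in triplicate, CAMHB ± bicarbonate (6.25 or 25 mM final) or 0-50% heat-inactivated human serum; 5×10^4 CFU/well.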

E. coli (Ec) = experiment: as above; format: cell-based; conditions: Escherichia coli, read-out: E. coli + bicarb MIC
Outline: as §1

P. aeruginosa (Pa) = experiment: as above; format: cell-based; conditions: Pseudomonas aeruginosa, read-out: Pa MIC + bicarb
Outline: as §1

E. faecalis (Ef) = experiment: as above; format: cell-based; conditions: Enterococcus faecalis, read-out: Ef + bicarb MIC
Outline: as §1

A. baumannn (Ab) = experiment: as above; format: cell-based; conditions: read-out: Ab + bicarb MIC
Outline: as §1

[3] = class by IC50 or % inhibition @ 1 μM
[4] = growth medium supplemented with sodium bicarbonate
[5] = growth medium with sodium bicarbonate
[6] = A. baumannn, growth medium with sodium bicarbonate

| SMILES | IC50 [1, 3] [µM] | IC50 [2, 3] [µM] | MIC (S. aureus (Sa); [4]) [µg/mL] | MIC (E. coli (Ec); [4]) [µg/mL] | MIC (P. aeruginosa (Pa); [4]) [µg/mL] | MIC (E. faecalis (Ef); [4]) [µg/mL] | MIC (A. baumannn (Ab); Acinetobacter baumannii) [µg/mL] | IC50 ([1]; % inhibition @ 1 μM) [µM] | IC50 ([2]; % inhibition @ 1 μM) [µM] | MIC (S. aureus (Sa); [5]) [µg/mL] | MIC (E. coli (Ec); [5]) [µg/mL] | MIC (P. aeruginosa (Pa); [5]) [µg/mL] | MIC (E. faecalis (Ef); [5]) [µg/mL] | MIC (A. baumannn (Ab); [6]) [µg/mL] |
| --- | --- | --- | --- | --- | --- | --- | --- | --- | --- | --- | --- | --- | --- | --- |
| NC[C@@H]1[C@H]2CN(CCc3ccc(-n4ccc(NC(=O)N5CC6(CC(N)C6)C5)nc4=O)cc3)C[C@@H]12 [Compound 149] | ≥ 1 | ≥ 1 | 8 to 32 | 8 to 32 | > 32 | > 32 | > 32 | – | – | – | – | – | – | – |
| CCCC(Cc1ccc(-n2ccc(NC(=O)N3CCN(C(=O)C(C)(C)N)CC3)nc2=O)cc1)N1C[C@@H]2[C@@H](CN)[C@@H]2C1 (stereo partly drawn) [Compound 150] | ≥ 1 | < 0.5 | < 8 | < 8 | < 8 | < 8 | < 8 | – | – | – | – | – | – | – |
| CCC(Cc1ccc(-n2ccc(NC(=O)N3CCN(C(=O)[C@@](C)(N)CO)CC3)nc2=O)cc1)N1C[C@@H]2[C@@H](CN)[C@@H]2C1 (stereo partly drawn) [Compound 151] | ≥ 1 | < 0.5 | < 8 | < 8 | 8 to 32 | < 8 | 8 to 32 | – | – | – | – | – | – | – |
| CC[C@@H](N)C1[C@H]2CN(CCc3ccc(-n4ccc(NC(=O)N5CCN(C(=O)C(C)(C)N)CC5)nc4=O)cc3)C[C@@H]12 (stereo partly drawn) [Compound 152] | ≥ 1 | ≥ 1 | > 32 | 8 to 32 | > 32 | > 32 | > 32 | – | – | – | – | – | – | – |
| CCCC(Cc1ccc(-n2ccc(NC(=O)N3CCN(C(=O)C(C)(C)N)CC3)nc2=O)cc1F)N1C[C@@H]2[C@@H](CN)[C@@H]2C1 (stereo partly drawn) [Compound 153] | ≥ 1 | < 0.5 | < 8 | < 8 | 8 to 32 | < 8 | < 8 | – | – | – | – | – | – | – |
| CCC(Cc1ccc(-n2ccc(NC(=O)N3CCN(C(=O)C(C)(C)N)CC3)nc2=O)cc1F)N1C[C@@H]2[C@@H](CN)[C@@H]2C1 (stereo partly drawn) [Compound 154] | ≥ 1 | < 0.5 | < 8 | < 8 | < 8 | < 8 | < 8 | – | – | – | – | – | – | – |
| CC(C)C(Cc1ccc(-n2ccc(NC(=O)N3CCN(C(=O)C(C)(C)N)CC3)nc2=O)cc1)N1C[C@@H]2[C@@H](CN)[C@@H]2C1 (stereo partly drawn) [Compound 155] | ≥ 1 | < 0.5 | < 8 | < 8 | < 8 | < 8 | < 8 | – | – | – | – | – | – | – |
| CC(C)CC(Cc1ccc(-n2ccc(NC(=O)N3CCN(C(=O)C(C)(C)N)CC3)nc2=O)cc1)N1C[C@@H]2[C@@H](CN)[C@@H]2C1 (stereo partly drawn) [Compound 156] | ≥ 1 | < 0.5 | < 8 | < 8 | < 8 | < 8 | < 8 | – | – | – | – | – | – | – |
| CC(Cc1ccc(-n2ccc(NC(=O)N3CCN(C(=O)C(C)(C)N)CC3)nc2=O)cc1)N1C[C@@H]2[C@@H](CN)[C@@H]2[C@H]1CO (stereo partly drawn) [Compound 157] | ≥ 1 | < 0.5 | < 8 | < 8 | > 32 | 8 to 32 | > 32 | – | – | – | – | – | – | – |
| CC(C)(N)C(=O)N1CCN(C(=O)Nc2ccn(-c3ccc(CCN4CC5(CNC5)C4)cc3)c(=O)n2)CC1 [Compound 160] | ≥ 1 | ≥ 1 | > 32 | < 8 | > 32 | > 32 | > 32 | – | – | – | – | – | – | – |
| CC(C)(N)C(=O)N1CCN(C(=O)Nc2ccn(-c3ccc(CCN4CCC5(CCNC5)C4)cc3)c(=O)n2)CC1 (stereo not drawn) [Compound 161] | ≥ 1 | < 0.5 | < 8 | < 8 | > 32 | 8 to 32 | > 32 | – | – | – | – | – | – | – |
| CC(Cc1ccc(-n2ccc(NC(=O)N3CCN(C(=O)C(C)(C)N)CC3)nc2=O)cc1)N1CC2(CNC2)C1 (stereo not drawn) [Compound 162] | ≥ 1 | ≥ 1 | 8 to 32 | 8 to 32 | > 32 | > 32 | > 32 | – | – | – | – | – | – | – |
| CC(Cc1ccc(-n2ccc(NC(=O)N3CCN(C(=O)C(C)(C)N)CC3)nc2=O)cc1)N1CCC2(CC1)CNC2 (stereo not drawn) [Compound 163] | – | – | – | – | – | – | – | ≥ 1 | ≥ 1 | < 8 | < 8 | > 32 | > 32 | > 32 |
| CN(Cc1ccc(-n2ccc(NC(=O)N3CCN(C(=O)C(C)(C)N)CC3)nc2=O)cc1)C12CCC(N)(CC1)C2 [Compound 164] | – | – | – | – | – | – | – | ≥ 1 | < 0.5 | < 8 | < 8 | > 32 | < 8 | 8 to 32 |
| CN(Cc1ccc(-n2ccc(NC(=O)N3CCN(C(=O)C(C)(C)N)CC3)nc2=O)cc1)C12CCC(N)(CC1)CC2 [Compound 165] | – | – | – | – | – | – | – | ≥ 1 | 0.5 to 1 | < 8 | < 8 | > 32 | < 8 | 8 to 32 |
| CCN(Cc1ccc(-n2ccc(NC(=O)N3CCN(C(=O)C(C)(C)N)CC3)nc2=O)cc1)C12CCC(N)(CC1)C2 [Compound 166] | – | – | – | – | – | – | – | ≥ 1 | < 0.5 | < 8 | < 8 | > 32 | < 8 | 8 to 32 |
| CC(C)(N)C(=O)N1CCN(C(=O)Nc2ccn(-c3ccc(CNC45CCC(N)(CC4)CC5)cc3)c(=O)n2)CC1 [Compound 167] | – | – | – | – | – | – | – | ≥ 1 | < 0.5 | < 8 | < 8 | 8 to 32 | < 8 | 8 to 32 |
| CC(C)(N)C(=O)N1CCN(C(=O)Nc2ccn(-c3ccc(CNC45CCC(N)(CC4)C5)cc3)c(=O)n2)CC1 [Compound 168] | – | – | – | – | – | – | – | ≥ 1 | < 0.5 | < 8 | < 8 | > 32 | < 8 | > 32 |
| CN(Cc1ccc(-n2ccc(NC(=O)N3CCN(C(=O)C(C)(C)N)CC3)nc2=O)cc1)C12CC(N)(C1)C2 [Compound 169] | – | – | – | – | – | – | – | ≥ 1 | ≥ 1 | > 32 | 8 to 32 | > 32 | > 32 | > 32 |
| CCN(Cc1ccc(-n2ccc(NC(=O)N3CCN(C(=O)C(C)(C)N)CC3)nc2=O)cc1)C12CC(N)(C1)C2 [Compound 170] | – | – | – | – | – | – | – | ≥ 1 | < 0.5 | > 32 | < 8 | > 32 | > 32 | > 32 |
| CC(C)(N)C(=O)N1CCN(C(=O)Nc2ccn(-c3ccc(CNC45CC(N)(C4)C5)cc3)c(=O)n2)CC1 [Compound 171] | – | – | – | – | – | – | – | ≥ 1 | ≥ 1 | > 32 | 8 to 32 | > 32 | > 32 | > 32 |
| CCN(Cc1ccc(-n2ccc(NC(=O)N3CCN(C(=O)C(C)(C)N)CC3)nc2=O)cc1)C12CCC(N)(CC1)CC2 [Compound 172] | – | – | – | – | – | – | – | ≥ 1 | < 0.5 | < 8 | < 8 | > 32 | < 8 | 8 to 32 |
| CC(C)(N)C(=O)N1CCN(C(=O)Nc2ccn(-c3ccc(CNC45CC(CN)(C4)C5)cc3)c(=O)n2)CC1 [Compound 173] | – | – | – | – | – | – | – | ≥ 1 | ≥ 1 | > 32 | < 8 | > 32 | > 32 | > 32 |
| CN(Cc1ccc(-n2ccc(NC(=O)N3CCN(C(=O)C(C)(C)N)CC3)nc2=O)cc1)C12CC(CN)(C1)C2 [Compound 174] | – | – | – | – | – | – | – | ≥ 1 | ≥ 1 | < 8 | < 8 | > 32 | 8 to 32 | > 32 |
| CCN(Cc1ccc(-n2ccc(NC(=O)N3CCN(C(=O)C(C)(C)N)CC3)nc2=O)cc1)C12CC(CN)(C1)C2 [Compound 175] | – | – | – | – | – | – | – | ≥ 1 | ≥ 1 | < 8 | < 8 | > 32 | < 8 | > 32 |
| CC(Cc1ccc(-n2ccc(NC(=O)N3CCN(C(=O)C(C)(C)N)CC3)nc2=O)cc1)NC1CC2(CC(N)C2)C1 (stereo not drawn) [Compound 176] | – | – | – | – | – | – | – | ≥ 1 | ≥ 1 | < 8 | < 8 | > 32 | 8 to 32 | > 32 |
| CC(C)(N)C(=O)N1CCN(C(=O)Nc2ccn(-c3ccc(CCNC4CC5(CC(N)C5)C4)cc3)c(=O)n2)CC1 (stereo not drawn) [Compound 177] | – | – | – | – | – | – | – | ≥ 1 | ≥ 1 | < 8 | < 8 | > 32 | 8 to 32 | > 32 |
